Results: US20220218852A1, “NOVEL RADIOLABELLED CXCR4-TARGETING COMPOUNDS FOR DIAGNOSIS AND THERAPY” (PROVINCIAL HEALTH SERVICES AUTHORITY, priority 2019, published 2022)
Read-outs that look alike come from different tables or passages of the source. Positions of bridges follow the written chain, without caps; N, C: chain ends. Non-standard residues stand in square brackets, D forms with d. Residues, ends and D or L forms follow the SMILES beside them. Groups on a side chain read outwards from the residue. *: point of attachment. DOTA = O=C(O)CN1CCN(CC(=O)O)CCN(CC(=O)*)CCN(CC(=O)O)CC1; 2Nal = N[C@@H](Cc1ccc2ccccc2c1)C(=O)O; Lys(iPr) = CC(C)NCCCC[C@H](N)C(=O)O

What was measured:
[1] = In vivo stability (plasma radio-HPLC) in male NRG mice; conditions: 5 mins
Description: Radiolabeled peptides (10-30 MBq) was intravenously injected into male NRG mice. After a 5-min, 24-hour or 120-hour uptake period, mice were sedated/euthanized, and blood was collected. The plasma was isolated and analyzed with analytical radio-HPLC following published procedures (Lin et al., Cancer Res. 2015, 75:387-393).

[2] = Biodistribution in Jeko1 tumor-bearing mice; type: in vivo; conditions: male, NOD.Cg-Rag1^tm1MomII2rg^tm1Wjl/SzJ (NRG), mouse, iv, total radioactivity
Protocol: (§1) For Daudi, Z138, GRANTA519 and Jeko1 xenografts, male NOD.Cg-Rag1^tm1MomII2rg^tm1Wjl/SzJ (NRG) mice were subcutaneously inoculated on the left flank with 5×10^6 cells (100 μL; 1:1 ratio of PBS/Matrigel) and tumors were grown to a size of 200-500 mm^3. For PC-3 xenografts, male NOD.Cg-Rag1^tm1MomII2rg^tm1Wjl/SzJ (NRG) mice were subcutaneously inoculated on the left flank with 5×10^6 PC-3 cells (100 μL; 1:1 ratio of PBS/Matrigel) and tumors were grown to a size of 200-400 mm^3.
(§2) The mice were euthanized via CO2 inhalation while anesthetized with isoflurane. Tissues were harvested, washed in PBS, blotted dry, weighed, and measured on a Hidex AMG Automatic Gamma Counter.

[3] = test system: Jeko1 mantle cell lymphoma xenografts; assay: Biodistribution in Jeko1 tumor-bearing mice; type: in vivo
Protocol: as §1, §2

[4] = Biodistribution in PC3 tumor-bearing mice; type: in vivo; conditions: male, NOD.Cg-Rag1^tm1MomII2rg^tm1Wjl/SzJ (NRG), mouse, iv, total radioactivity
Protocol: as §1, §2

[5] = adrenals, 1 h, read-out: Biodistribution Adrenals
[6] = adrenals, 1 h blocked (7.5 μg LY2510924 i.p.), read-out: Biodistribution Adrenals
[7] = bone, 1 h, read-out: Biodistribution Bone
[8] = bone, 1 h blocked (7.5 μg LY2510924 i.p.), read-out: Biodistribution Bone
[9] = brain, 1 h, read-out: Biodistribution Brain
[10] = brain, 1 h blocked (7.5 μg LY2510924 i.p.), read-out: Biodistribution Brain
[11] = fat, 1 h, read-out: Biodistribution Fat
[12] = fat, 1 h blocked (7.5 μg LY2510924 i.p.), read-out: Biodistribution Fat
[13] = heart, 1 h, read-out: Biodistribution Heart
[14] = heart, 1 h blocked (7.5 μg LY2510924 i.p.), read-out: Biodistribution Heart
[15] = intestine, 1 h, read-out: Biodistribution Intestine
[16] = intestine, 1 h blocked (7.5 μg LY2510924 i.p.), read-out: Biodistribution Intestine
[17] = kidney, 1 h, read-out: Biodistribution Kidney
[18] = kidney, 1 h blocked (7.5 μg LY2510924 i.p.), read-out: Biodistribution Kidney
[19] = liver, 1 h, read-out: Biodistribution Liver
[20] = liver, 1 h blocked (7.5 μg LY2510924 i.p.), read-out: Biodistribution Liver
[21] = lung, 1 h, read-out: Biodistribution Lung
[22] = lung, 1 h blocked (7.5 μg LY2510924 i.p.), read-out: Biodistribution Lung
[23] = muscle, 1 h, read-out: Biodistribution Muscle
[24] = muscle, 1 h blocked (7.5 μg LY2510924 i.p.), read-out: Biodistribution Muscle
[25] = pancreas, 1 h, read-out: Biodistribution Pancreas
[26] = pancreas, 1 h blocked (7.5 μg LY2510924 i.p.), read-out: Biodistribution Pancreas
[27] = spleen, 1 h, read-out: Biodistribution Spleen
[28] = spleen, 1 h blocked (7.5 μg LY2510924 i.p.), read-out: Biodistribution Spleen
[29] = stomach, 1 h, read-out: Biodistribution Stomach
[30] = stomach, 1 h blocked (7.5 μg LY2510924 i.p.), read-out: Biodistribution Stomach
[31] = testes, 1 h, read-out: Biodistribution Testes
[32] = testes, 1 h blocked (7.5 μg LY2510924 i.p.), read-out: Biodistribution Testes
[33] = 1 h blocked (7.5 μg LY2510924 i.p.)

CC(C)NCCCC[C@@H]1NC(=O)[C@H](Cc2ccc(O)cc2)NC(=O)[C@H](Cc2ccccc2)NC(=O)CC[C@H](C(=O)N[C@@H](CCCCNC(C)C)C(=O)N[C@@H](CCCCNC(=O)[C@H](CCC(=O)O)NC(=O)[C@H](CCC(=O)O)NC(=O)[C@H](CCC(=O)O)NC(=O)CN2CCN(CC(=O)O)CCN(CC(=O)O)CCN(CC(=O)O)CC2)C(N)=O)NC(=O)CNC(=O)[C@H](Cc2ccc3ccccc3c2)NC(=O)[C@@H](CCCNC(=N)N)NC1=O [[^68Ga]Ga-BL02, metal not drawn] (FY[Lys(iPr)][dR][2Nal]G[dE][Lys(iPr)]K([Glu-Glu-Glu-DOTA])-NH2; lactam N-7)
% Intact Peptide [1]: >99%
tissue uptake at 1 h ([2]; Jeko1 tumor, 1 h, read-out: Biodistribution Jeko1 (tumor)): 11.4 %ID/g
tissue uptake at 1 h ([2]; Jeko1 tumor, 1 h blocked (7.5 μg LY2510924 i.p.), read-out: Biodistribution Jeko1 (tumor)): 1.32 %ID/g
tissue uptake at 1 h [2, 5]: 0.23 %ID/g
tissue uptake at 1 h [2, 6]: 0.47 %ID/g
tissue uptake at 1 h [2, 7]: 0.47 %ID/g
tissue uptake at 1 h [2, 8]: 0.18 %ID/g
tissue uptake at 1 h [2, 9]: 0.02 %ID/g
tissue uptake at 1 h [2, 10]: 0.03 %ID/g
tissue uptake at 1 h [2, 11]: 0.05 %ID/g
tissue uptake at 1 h [2, 12]: 0.14 %ID/g
tissue uptake at 1 h [2, 13]: 0.13 %ID/g
tissue uptake at 1 h [2, 14]: 0.35 %ID/g
tissue uptake at 1 h [2, 15]: 0.19 %ID/g
tissue uptake at 1 h [2, 16]: 0.44 %ID/g
tissue uptake at 1 h [2, 17]: 3.32 %ID/g
tissue uptake at 1 h [2, 18]: 8.91 %ID/g
tissue uptake at 1 h [2, 19]: 0.77 %ID/g
tissue uptake at 1 h [2, 20]: 0.55 %ID/g
tissue uptake at 1 h [2, 21]: 0.74 %ID/g
tissue uptake at 1 h [2, 22]: 1.05 %ID/g
tissue uptake at 1 h [2, 23]: 0.06 %ID/g
tissue uptake at 1 h [2, 24]: 0.2 %ID/g
tissue uptake at 1 h [2, 25]: 0.09 %ID/g
tissue uptake at 1 h [2, 26]: 0.26 %ID/g
tissue uptake at 1 h [2, 27]: 0.7 %ID/g
tissue uptake at 1 h [2, 28]: 0.57 %ID/g
tissue uptake at 1 h [2, 29]: 0.06 %ID/g
tissue uptake at 1 h [2, 30]: 0.13 %ID/g
tissue uptake at 1 h [2, 31]: 0.14 %ID/g
tissue uptake at 1 h [2, 32]: 0.29 %ID/g
tissue uptake at 1 h ([2]; whole blood, 1 h, read-out: Biodistribution Blood): 0.38 %ID/g
tissue uptake at 1 h ([2]; whole blood, 1 h blocked (7.5 μg LY2510924 i.p.), read-out: Biodistribution Blood): 1.08 %ID/g
Ratio Tumor: Blood ([3]; 1 h): 31.30
Ratio Tumor: Bone ([3]; 1 h): 37.23
Ratio Tumor: Liver ([3]; 1 h): 15.41
Ratio Tumor: Lung ([3]; 1 h): 15.76
Ratio Tumor: Muscle ([3]; 1 h): 180.39
Ratio Tumor: Spleen ([3]; 1 h): 19.78
Ratio Tumor: Blood [3, 33]: 1.74
Ratio Tumor: Bone [3, 33]: 8.83
Ratio Tumor: Liver [3, 33]: 2.59
Ratio Tumor: Lung [3, 33]: 1.48
Ratio Tumor: Muscle [3, 33]: 8.71
Ratio Tumor: Spleen [3, 33]: 3.10
tissue uptake at 1 h ([4]; PC3 tumor, 1 h, read-out: Biodistribution PC3 (tumor)): 1.83 %ID/g
tissue uptake at 1 h ([4]; PC3 tumor, 1 h blocked (7.5 μg LY2510924 i.p.), read-out: Biodistribution PC3 (tumor)): 0.75 %ID/g
tissue uptake at 2 h ([4]; PC3 tumor, read-out: Biodistribution PC3 (tumor)): 1.41 %ID/g
tissue uptake at 1 h [4, 5]: 0.18 %ID/g
tissue uptake at 1 h [4, 6]: 0.18 %ID/g
tissue uptake at 2 h ([4]; adrenals, read-out: Biodistribution Adrenals): 0.1 %ID/g
tissue uptake at 1 h ([4]; blood, 1 h, read-out: Biodistribution Blood): 0.33 %ID/g
tissue uptake at 1 h ([4]; blood, 1 h blocked (7.5 μg LY2510924 i.p.), read-out: Biodistribution Blood): 0.54 %ID/g
tissue uptake at 2 h ([4]; blood, read-out: Biodistribution Blood): 0.06 %ID/g
tissue uptake at 1 h [4, 7]: 0.12 %ID/g
tissue uptake at 1 h [4, 8]: 0.15 %ID/g
tissue uptake at 2 h ([4]; bone, read-out: Biodistribution Bone): 0.11 %ID/g
tissue uptake at 1 h [4, 9]: 0.01 %ID/g
tissue uptake at 1 h [4, 10]: 0.02 %ID/g
tissue uptake at 2 h ([4]; brain, read-out: Biodistribution Brain): 0.01 %ID/g
tissue uptake at 1 h [4, 11]: 0.2 %ID/g
tissue uptake at 1 h [4, 12]: 0.16 %ID/g
tissue uptake at 2 h ([4]; fat, read-out: Biodistribution Fat): 0.01 %ID/g
tissue uptake at 1 h [4, 13]: 0.14 %ID/g
tissue uptake at 1 h [4, 14]: 0.21 %ID/g
tissue uptake at 2 h ([4]; heart, read-out: Biodistribution Heart): 0.06 %ID/g
tissue uptake at 1 h [4, 15]: 0.18 %ID/g
tissue uptake at 1 h [4, 16]: 0.25 %ID/g
tissue uptake at 2 h ([4]; intestine, read-out: Biodistribution Intestine): 0.14 %ID/g
tissue uptake at 1 h [4, 17]: 3.6 %ID/g
tissue uptake at 1 h [4, 18]: 3.75 %ID/g
tissue uptake at 2 h ([4]; kidney, read-out: Biodistribution Kidney): 4.67 %ID/g
tissue uptake at 1 h [4, 19]: 0.55 %ID/g
tissue uptake at 1 h [4, 20]: 0.5 %ID/g
tissue uptake at 2 h ([4]; liver, read-out: Biodistribution Liver): 0.73 %ID/g
tissue uptake at 1 h [4, 21]: 0.5 %ID/g
tissue uptake at 1 h [4, 22]: 0.6 %ID/g
tissue uptake at 2 h ([4]; lung, read-out: Biodistribution Lung): 0.33 %ID/g
tissue uptake at 1 h [4, 23]: 0.08 %ID/g
tissue uptake at 1 h [4, 24]: 0.11 %ID/g
tissue uptake at 2 h ([4]; muscle, read-out: Biodistribution Muscle): 0.03 %ID/g
tissue uptake at 1 h [4, 25]: 0.1 %ID/g
tissue uptake at 1 h [4, 26]: 0.12 %ID/g
tissue uptake at 2 h ([4]; pancreas, read-out: Biodistribution Pancreas): 0.04 %ID/g
tissue uptake at 1 h [4, 27]: 0.28 %ID/g
tissue uptake at 1 h [4, 28]: 0.37 %ID/g
tissue uptake at 2 h ([4]; spleen, read-out: Biodistribution Spleen): 0.25 %ID/g
tissue uptake at 1 h [4, 29]: 0.05 %ID/g
tissue uptake at 1 h [4, 30]: 0.06 %ID/g
tissue uptake at 2 h ([4]; stomach, read-out: Biodistribution Stomach): 0.06 %ID/g
tissue uptake at 1 h [4, 31]: 0.18 %ID/g
tissue uptake at 1 h [4, 32]: 0.35 %ID/g
tissue uptake at 2 h ([4]; testes, read-out: Biodistribution Testes): 0.06 %ID/g
